Results taken from article PMC10046377, “Inhibitors of the Oncogenic PA2G4-MYCN Protein-Protein Interface” (Cancers, 2023).

Key:
PA2G4 protein = target: T1, PA2G4 protein (Homo sapiens, UniProt Q9UQ80); experiment: Differential scanning fluorimetry of PA2G4; format: binding; parameters: made in house; host or cells: BL21 (DE3) E. coli; conditions: relative to DMSO control
T1 sequence (Q9UQ80 1-394): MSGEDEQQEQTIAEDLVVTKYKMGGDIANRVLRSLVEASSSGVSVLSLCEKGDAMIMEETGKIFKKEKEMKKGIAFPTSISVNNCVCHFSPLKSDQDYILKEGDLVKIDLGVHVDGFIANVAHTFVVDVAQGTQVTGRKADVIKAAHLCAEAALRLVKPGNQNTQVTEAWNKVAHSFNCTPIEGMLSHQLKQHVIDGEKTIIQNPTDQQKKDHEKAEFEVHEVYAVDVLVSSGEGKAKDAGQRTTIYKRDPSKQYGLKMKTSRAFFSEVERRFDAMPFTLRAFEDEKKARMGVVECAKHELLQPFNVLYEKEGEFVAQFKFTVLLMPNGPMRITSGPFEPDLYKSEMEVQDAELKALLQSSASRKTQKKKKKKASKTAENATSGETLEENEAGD
Source text: Seeking a further reduction of toxicity and improvements in physicochemical properties, we conducted a second in silico analogue screen using the structure of #3567. A further 33 compounds were purchased and assayed (Supplementary Figure S1C).

[1] = test system: neuroblastoma cells (Kelly and SK-N-BE(2)-C); experiment: BrdU cell proliferation assay; format: cell-based, human; conditions: 30 μM drug treatment for 48 h
Protocol: Cells were seeded in 96-well plates the day before and then treated with #5333 and #5338 for […]. Cell proliferation was measured using the BrdU ELISA kit (Roche, Millers Point, Australia), according to the manufacturer’s instructions. 10 μM BrdU was added to media and incubated at 37 °C in 5% CO2 for 2 h. Cells were fixed with supplied fixing solution for 30 min and then blocked with 10% FCS in PBS for 10 min. Peroxidase-conjugated anti-BrdU (1:100) was added and incubated for 90 min at room temperature. After washing with PBS for three times, peroxidase substrate was added to the cells. Changes in cell proliferation were calculated from the absorbance readings at 370 nm (495 nm reference wavelength) on the Benchmark Plus microplate reader (Bio-Rad).
We treated human neuroblastoma tumour cell lines with high MYCN and PA2G4 expression (Kelly and SK-N-BE(2)-C), using increasing concentrations of #5333 or #5338, and measured the ability of cells to proliferate and form colonies in vitro over 2 weeks. […] Next, we evaluated cell replication using the BrdU uptake assay in response to 30 μM drug treatment for 48 h (Figure 2C).

SK-N-BE(2)-C cells = experiment: Label-free quantitative LC/MS proteomics of treated SK-N-BE(2)-C cells; format: cell-based, human; conditions: 72 h, versus DMSO, LFQ LC/MS
Protocol: SK-N-BE(2)-C cells were incubated with #5333 or #5338 at IC50 concentration of the compound for 72 h. Cells were harvested and the pellets were lysed with RIPA buffer containing protease inhibitors (Sigma-Aldrich, St. Louis, MO, USA). Cell lysates were sent for LFQ/LC/MS analysis at the Bioanalytical Mass Spectrometry Facility, UNSW Sydney. […] Differential protein expression analysis was performed using the DEP (v1.14.0) package in R(v4.1.1). Variance stabilising transformation (vsn) method was used to normalise the protein expression data. Threshold of p-value < 0.05 and log2 fold-change value > |0.6| was used as a cut off to identify differentially expressed proteins. Functional enrichment analysis was performed using DAVID (v 6.8).
To further understand the mechanism of action and off target effects of the WS6 analogues, we used label-free quantitative mass spectrometry of differential proteome expression in response to drug treatment. […] A total of 4255 unique proteins were captured across the three proteomes, of which 258 proteins were differentially expressed after treatment with #5333, and 1371 proteins treated with #5338, when compared to DMSO-treated cells (Figure 4A,B and Supplementary Figure S4A).

[2] = test system: cleaved PARP and cleaved Caspase 3; experiment: Western blot of apoptotic markers; format: cell-based, human; conditions: compared to WS6 treatment at IC50 concentration; no changes in Bcl-2 or Bax
Protocol: Protein was extracted from cell pellets using RIPA buffer (Sigma) with 10% protease inhibitor (Sigma, Sydney, Australia). Quantification of proteins was conducted using Pierce BCA protein assay kit (Thermo Scientific), according to manufacturer’s instructions. A total of 30–50 μg protein samples were loaded onto Criterion TGX 10% precast gel (Bio-Rad) or NuPAGE™ 4–12% Mini Protein Gel (Invitrogen, Life technologies) and transferred to a nitrocellulose membrane (Bio-Rad). […] Quantification of protein expression was measured by Image Lab software (Bio-Rad) and normalised to loading control.
To determine if the drug effects led to apoptosis, we stained cells with annexin-V/7-AAD, a marker of early and late apoptotic events (Figure 2D). […] To confirm the apoptotic status of the cells, protein expression of key apoptotic markers PARP/Cleaved PARP, Caspase 3/Cleaved caspase 3, BCL2, and Bax was measured (Figure 2E).

melting temperature of PA2G4 (DSF) (PA2G4 protein)	SMILES	cell proliferation (BrdU uptake) [1]	GATA2 protein fold change (SK-N-BE(2)-C cells)	expression of cleaved PARP and cleaved Caspase 3 [2]
increased the melting temperature	Cc1cccc(Oc2cc(N3CCC(C(=O)NCc4cccc(Br)c4)CC3)ncn2)c1C [#5333]	significantly reduced	−4.2	increased
increased the melting temperature	Cc1cccc(Oc2cc(N3CCC(C(=O)N[C@@H](C)CCc4ccccc4)CC3)ncn2)c1C [#5338]	significantly reduced	−5.5	increased
